Assay results from article PMC5073322, “Novel Natural Product-like Caged Xanthones Bearing a Carbamate Moiety Exhibit Antitumor Potency and Anti-Angiogenesis Activity In vivo” (Scientific Reports, 2016).

Assays:
[1] = tested on: Hsp90 client proteins in HepG2 cells; assay: Western blot of Hsp90 client proteins; format: cell-based, human; conditions: HepG2, 24 h
Protocol: (§1) Figure 9 (A) The caged compounds (50 μM) inhibited the Hsp90 ATPase activity in a HTRF-based inhibition assay. (B) The IC50 values for the inhibition of Hsp90 ATPase by 8n, 8o and GA as detected by the HTRF Transcreener ADP kit. The test compounds were diluted to obtain a range of concentrations and incubated with Hsp90 and ATP. The amount of ADP generated was detected. (C) Western blots of the Hsp90 client proteins after HepG2 cells were treated with the indicated concentrations of 8n for 24 h. (D) The mRNA expression of VEGF was determined by real-time quantitative reverse-transcriptase polymerase chain reaction (RT-PCR) and analysed by the delta Ct method. The bars represent the means with standard error of the mean (SEM) and the fold change in the VEGF/GAPDH ratio relative to the vehicle-treated group. The different significance levels are indicated as **P < 0.05.
(§2) The influence of 8n on the degradation of Hsp90 client proteins was monitored by WB analysis. HepG2 cells were treated with different concentrations of 8n for 24 h. […] HIF-1α, as a key modulator of angiogenesis and an important client protein of Hsp90, was also examined, and the expression of HIF-1α decreased after treatment with 8n.
The cells were washed with PBS and lysed with ice-cold lysis buffer supplemented with protease inhibitors (Roche) for 30 min. The protein content of the supernatants of lysates was determined using a bicinchoninic acid assay. Equal 50 μg total protein samples were separated by sodium dodecyl sulphate polyacrylamide gel electrophoresis (SDS−PAGE) and then transferred onto PVDF membranes (Millipore) at 90 volts for 90 mins. After blocking the membrane with 5% skim milk for 1 h at RT, the membranes were incubated with the primary antibody overnight at 4 °C. Then, the membranes were incubated with a DyLight 800-labeled secondary antibody in the dark for 1 h. Detection of specific proteins was performed with the Odyssey infrared imaging system (LI-COR, Lincoln, Nebraska, USA).

[2] = tested on: Caspase-3 and PARP in HepG2 cells; assay: Western blot of apoptosis-related proteins; format: cell-based, human; conditions: HepG2, 24 h
Protocol: Figure 6 (A) Morphological changes in cancer cells and nuclei. (B) 8n induced apoptosis in HepG2 cells. Cultured HepG2 cells were treated with the indicated concentrations of 8n for 48 h. The cells were then were stained with DAPI and observed by fluorescence microscopy. (C) 8n induces apoptosis in a dose-dependent manner. HepG2 cells were treated with different concentrations of 8n for 48 h, and Annexin V and propidium iodide staining were performed. (D) The percentages of early apoptotic and total apoptotic cells were quantified using flow cytometry. *p < 0.05; **p < 0.01. (E) The expression of apoptotic-related proteins in HepG2 cells treated with 8n. HepG2 cells were treated with various concentrations of 8n for 24 h and were then harvested and lysed. The expression levels of Caspase-3, Cleaved Caspase-3, Bax, Bcl-2, PARP and cleaved PARP were measured by Western blotting. TEXT PRINTED IN THE PICTURE: (C) Compound 8n: Dead 1.50 % (Control); Late Apop./Dead 4.95 % (Control); Early Apop. 1.05 % (Control); Dead 1.95 % (0.1 μM); Late Apop./Dead 7.80 % (0.1 μM); Early Apop. 1.60 % (0.1 μM); Dead 7.81 % (0.3 μM); Late Apop./Dead 9.19 % (0.3 μM); Early Apop. […]
The cells were washed with PBS and lysed with ice-cold lysis buffer supplemented with protease inhibitors (Roche) for 30 min. The protein content of the supernatants of lysates was determined using a bicinchoninic acid assay. […]

MDA-MB-231 = assay: MTT antiproliferative assay, MDA-MB-231; conditions: read-out: IC50 MDA-MB-231; MTT, 72 h
VEGF = VEGF mRNA by real-time RT-PCR; format: cell-based; conditions: hypoxia, VEGF/GAPDH
Protocol: as §1, §2

A549/cisplatin = assay: MTT antiproliferative assay, cisplatin-resistant A549; format: cell-based; conditions: read-out: IC50 A549/cisplatin, MTT, 72 h
Protocol: The inhibition of tumour cell growth was measured by a modified tetrazolium (MTT) salt assay, as previously described[39]. Cells were cultured in a 96-well plate and treated with culture medium alone or different concentrations of the compounds. The cells were incubated for 72 h, and then, the MTT assay reagent was added. After a 4 h incubation, the formazan product was quantitated at 570 nm. The IC50 values (the concentrations that gave rise to 50% inhibition of cell viability) were calculated using GraphPad Prism 6 using a variable slope (four parameters).

HepG2 cells = assay: Annexin V/PI apoptosis, flow cytometry; format: cell-based, human; conditions: 48 h
Protocol: First, the influence of 8n on the cytoskeleton was evaluated using morphological observations. After treatment with 8n, the morphological features of tumour cells changed greatly, and the changed characteristics included the rounding-up of cells, rough membrane surfaces, and more spherical or ovoid cytoplasmic fragments (Fig. 6A). However, the control group, which lacked compound 8n, had good growth. Next, we examined whether the morphological changes were the result of apoptosis induced by compound 8n using DAPI staining and FACScan.
Figure 6 (A) Morphological changes in cancer cells and nuclei. (B) 8n induced apoptosis in HepG2 cells. […] The cells were then were stained with DAPI and observed by fluorescence microscopy. […] (D) The percentages of early apoptotic and total apoptotic cells were quantified using flow cytometry. *p < 0.05; **p < 0.01. […] The expression levels of Caspase-3, Cleaved Caspase-3, Bax, Bcl-2, PARP and cleaved PARP were measured by Western blotting. […]
HepG2 cells were grown on glass coverslips and fixed in 4% paraformaldehyde. […] 8n-induced apoptosis was assessed using a fluorescence microscope and the Annexin V-FITC apoptosis Detection Kit (Beyotime Biotechnology, Shanghai, China) according to the manufacturer’s instructions. […] Stained cells were analysed with a FACScan analyser (argon laser, Becton Dickinson, USA). All data were analysed by using the FlowJo software.

HUVECs = assay: Transwell invasion assay; format: cell-based, human; conditions: 0.25 μM
Protocol: GA was reported to inhibit tumour angiogenesis and may be a viable drug candidate for anti-angiogenesis and anticancer therapies. Therefore, the anti-angiogenesis activity of the caged xanthone derivative 8n was evaluated. Human umbilical vein endothelial cells (HUVECs) were used in all experiments. Cell migration is critical for endothelial cells to form blood vessels during angiogenesis, tumour growth and metastasis. […] Endothelial cell invasion is a critical part of angiogenesis; therefore, a transwell assay was performed to evaluate the ability of inactivated HUVECs to pass through the transwell membrane barrier in the presence of 8n.
Figure 8 8n had anti-angiogenesis activity in vitro and in vivo. (A) A wound-healing assay was used to evaluate the motility of HUVECs after treatment with 8n for 24 h. (B) Changes in cell motility were evaluated using a transwell assay of cell migration and invasion. (C) The effect of 8n on tube formation by HUVECs. HUVECs were incubated with 8n for 6 h and then transferred to Matrigel for 6 h. (D) Zebrafish embryos treated with blank control or 1, 10, or 50 μg/ml of 8n.
A transwell migration assay was performed as previously described with minor modifications. HUVECs (4×10^4 cells per well) with compound 8n were seeded in the top of transwells (Corning Incorporated) and allowed to migrate for 4 h at 37 °C, 5% CO2 and 1% O2. […]

Q: How did the “expression levels of client proteins HER-2, Akt and Erk1/2” value [1] turn out when `CC(C)=CCC12OC(C)(C)C3CC(C=C4C(=O)c5c(OC(=O)N6CCC(N7CCCCC7)CC6)cccc5OC431)C2=O` (stereo not shown) [Compound 8n] was run?
A: The value was “dramatically reduced”.

Q: And the “expression of HIF-1α” value [1]?
A: Its value is “decreased”.

Q: And the “expression of Hsp70” value [1]?
A: The value was “changed little”.

Q: What about the “levels of cleaved caspase-3/PARP” value [2] of the same compound?
A: Its value is “increased”.

Q: And the IC50 (MDA-MB-231)?
A: Its IC50 is 1.2 ± 0.07 µM.

Q: What about the “hypoxic induction of VEGF expression (mRNA)” value (VEGF) of the same compound?
A: Its value is “substantially repressed”.

Q: And the IC50 (A549/cisplatin)?
A: The IC50 was 1.1 ± 0.17 µM.

Q: And the apoptotic cells (HepG2 cells; 0.3 μM)?
A: The apoptotic cells was “more than 11.89%”.

Q: And the apoptotic cells (HepG2 cells; 1 μM)?
A: Its apoptotic cells is over 46.3%.

Q: And the “invasion of inactivated HUVECs” value (HUVECs)?
A: Its value is “almost completely inhibited”.
